The nature of data set [1]: PK analysis after intravenous administration in SD rats. The note with it: for AUC(0-t) / Cmax / half-life: male, rat, plasma. Format: in vivo, rat. Also noted: AUC: unit not given here. The procedure: SD rats (male, 6 weeks old) were obtained from Orient Bio (Seoul, Korea) and housed under pathogen-free conditions. All animal procedures were conducted in accordance with the guidelines of the Animal Care Facility at Biotoxtech Co., Ltd. (Chungcheongbuk-do, Korea). NCD was administered intravenously (IV) to SD rats at doses of 5, 10, or 20 mg/kg to evaluate its pharmacokinetics. Blood samples were collected from the jugular vein at various time points, mixed with 3.8% (w/v) sodium citrate, and centrifuged at 8,000 × g for 30 min to obtain plasma. The plasma samples were then mixed with acetonitrile (33%, v/v), vortexed for 5 min, and centrifuged at 13,000 × g for 10 min. The concentration of NCD in plasma was determined using high-performance liquid chromatography (HPLC; Shimadzu, Japan) equipped with a UV detector. Pharmacokinetic parameters were calculated using Microsoft Excel ([31]).

The target of another data set is T1, BRD2 BD2 (Homo sapiens, UniProt P25440).
T1 construct: biotinylated BRD2 BD1, BRD2 BD2; biotin (biotinylated protein); made in house; host or cells: Escherichia coli BL21(DE3)
Kind of data set: Biosensor binding kinetics assay (Octet), BRD2 BD2. On the procedure: (§1) Binding kinetics were assessed using the Octet® R2 system (Sartorius, Göttingen, Germany). Superstreptavidin biosensors were loaded with biotinylated BRD2 BD1, BRD2 BD2, BRD3 BD1, BRD3 BD2, BRD4 BD1, BRD4 BD2, or biotin alone (as a negative control) in PBST buffer (phosphate-buffered saline containing 0.02% Tween 20 and 5% DMSO). The sensors were then dipped into compound solutions for 10 min. To evaluate association kinetics (kon), each sensor was exposed to serial dilutions of the protein for 180 s, followed by dipping them into PBST buffer to assess dissociation kinetics (koff). For control, a separate sensor loaded with the compound was dipped into PBST alone. Competition binding assays were performed by exposing the compound-loaded sensor to mixtures of proteins and test compounds.

The target in the next data set is T2, BRD2 BD1 (Homo sapiens, UniProt P25440).
T2 construct: biotinylated BRD2 BD1; biotin (biotinylated protein); made in house; host or cells: Escherichia coli BL21(DE3)
Kind of data set: Biosensor binding kinetics assay (Octet), BRD2 BD1. The procedure: as §1

For a further data set, the target named is T3, BRD3 BD1 (Homo sapiens, UniProt Q15059).
T3 construct: biotinylated BRD2 BD1, BRD2 BD2, BRD3 BD1; biotin (biotinylated protein); made in house; host or cells: Escherichia coli BL21(DE3)
The experiment in a line: Biosensor binding kinetics assay (Octet), BRD3 BD1. The procedure:
as §1

The structures appear in SMILES notation.

T2 sequence (P25440 74-180 limits assumed): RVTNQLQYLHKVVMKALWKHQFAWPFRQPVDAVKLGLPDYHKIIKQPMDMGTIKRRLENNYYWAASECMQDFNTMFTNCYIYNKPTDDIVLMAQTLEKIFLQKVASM
T3 sequence (Q15059 34-140 limits assumed): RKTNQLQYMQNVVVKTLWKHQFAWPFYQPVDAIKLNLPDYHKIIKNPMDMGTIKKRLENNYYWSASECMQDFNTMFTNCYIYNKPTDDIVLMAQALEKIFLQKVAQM
T1 sequence (P25440 344-453 limits assumed): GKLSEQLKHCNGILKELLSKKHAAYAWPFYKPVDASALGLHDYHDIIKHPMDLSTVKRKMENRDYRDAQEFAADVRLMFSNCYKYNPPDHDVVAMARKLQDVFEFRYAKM

For `CNC(=O)CC1C(=O)NCCN1Cc1ccc(-c2ccccc2-c2cccc3c2CN(C)C3=O)o1` (centres unmarked) [NCD, N-methyl-2-(1-((5-(2-(2-methyl-1-oxoisoindolin-4-yl)phenyl)furan-2-yl)methyl)-3-oxopiperazin-2-yl)acetamide], the AUC in data set [1] (5 mg/kg) was found to be 631.83; in data set [1] (20 mg/kg), 4526.66. For the same compound, the AUC(0-t) in data set [1] (5 mg/kg) was found to be 632 ng·h/mL; in data set [1] (10 mg/kg), 1730 ng·h/mL; in data set [1] (20 mg/kg), 4530 ng·h/mL. In addition, the Cmax was 1110 ng/mL in data set [1] (5 mg/kg), 2560 ng/mL in data set [1] (10 mg/kg) and 4150 ng/mL in data set [1] (20 mg/kg). The results for the half-life in data set [1] (5 mg/kg), in data set [1] (10 mg/kg) and in data set [1] (20 mg/kg) were 24.6 min, 35.4 min and 45.6 min, respectively. In addition, the Kd at BRD2 BD2 was 104 nM; at BRD2 BD1 it was 26 nM; on BRD3 BD1, greater than 1000 nM.

The values above are taken from publication PMC12350126, “A novel carboxamide bromodomain inhibitor attenuates osteoarthritis via epigenetic repression of NF-κB and MAPK signaling” (Frontiers in Immunology, 2025).
